Assays:
HBV [1] = assay: HBV screening assay (viral DNA in baculovirus-HBV transduced HepG2 cells); format: cell-based; details: Hepatitis B virus, HepG2, 72 h, read-out: EC50 (antiviral activity), HBV-transduced HepG2 cells, three days with compound, viral DNA by ELISA
Outline: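 HepG2 cells transduced with baculovirus carrying the HBV genome were grown 3 days at 37 °C with compound in EMEM/10% FBS; viral DNA from lysates captured by solid-phase hybridisation with digoxigenin probes and read by anti-digoxigenin HRP ELISA. EC50 from titration curves; CC50 from non-transduced HepG2 after 3 days by MTS viability.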

HBV [2] = details: HBV treatment, background statement; cited from earlier work

Which EC50 (HBV [1]) does the source give for NC(=O)c1sc2nc3c(c(-c4cccs4)c2c1N)CN(C(=S)Nc1cc(Cl)cc(Cl)c1)C3 [Compound 89, 3-Amino-6-(3,5-dichloro-phenylthiocarbamoyl)-4-thiophen-2-yl-6,7-dihydro-5H-1-thia-6,8-diaza-s-indacene-2-carboxylic acid amide] here?
Its EC50 is over 10 µM.

With COC(=O)c1ccc(NC(=S)N2Cc3nc4sc(C(N)=O)c(N)c4c(-c4cccs4)c3C2)cc1 [Compound 90, 4-[(3-Amino-2-carbaomyl-4-thiophen-2-yl-5,7-dihydro-1-thia-6,8-diaza-s-indacene-6-carbothioyl)-amino]benzoic acid methylester] as the molecule, how does the EC50 (HBV [1]) read?
Its EC50 is over 10 µM.

With NC(=O)c1sc2nc3c(c(-c4cccs4)c2c1N)CN(C(=S)NC1CC1)C3 [Compound 91, 3-Amino-6-cyclopropylthiocarbamoyl-4-thiophen-2-yl-6,7-dihydro-5H-1-thia-6,8-diaza-s-indacene-2-carboxylic acid amide] as the molecule, how does the EC50 (HBV [1]) read?
Its EC50 is 1 to 10 µM.

For Cc1cc(C)cc(NC(=S)N2Cc3nc4sc(C(N)=O)c(N)c4c(-c4cccs4)c3C2)c1 [Compound 92, 3-Amino-6-(3,5-dimethyl-phenylthiopcarbamoyl)-4-thiophen-2-yl-6,7-dihydro-5H-1-thia-6,8-diaza-s-indacene-2-carboxylic acid amide], which EC50 (HBV [1]) is on record?
Its EC50 is over 10 µM.

For NC(=O)c1sc2nc3c(c(-c4cccs4)c2c1N)CN(C(=S)NCCN1CCOCC1)C3 [Compound 93, 3-Amino-6-(2-morpholin-4-yl-ethylthiocarbamoyl)-4-thiophen-2-yl-6,7-dihydro-5H-1-thia-6,8-diaza-s-indacene-2-c arboxylic acid amide], which EC50 (HBV [1]) is on record?
The EC50 was over 10 µM.

For NC(=O)c1sc2nc3c(c(-c4cccs4)c2c1N)CN(C(=S)NCCCN1CCOCC1)C3 [Compound 94, 3-Amino-6-(3-morpholin-4-yl-propylthiocarbamoyl)-4-thiophen-2-yl-6,7-dihydro-5H-1-thia-6,8-diaza-s-indacene-2-carboxylic acid amide], which EC50 (HBV [1]) is on record?
The EC50 was over 10 µM.

With NC(=O)c1sc2nc3c(c(-c4cccs4)c2c1N)CN(C1=NCCS1)C3 [Compound 95, 3-Amino-6-(4,5-dihydro-thiazol-2-yl)-4-thiophen-2-yl-6,7-dihydro-5H-1-thia-6,8-diaza-s-indacene-2-carboxylic acid amide] as the molecule, how does the EC50 (HBV [1]) read?
The EC50 was under 1 µM.

With NC(=O)c1sc2nc3c(c(-c4cccs4)c2c1N)CN(C(=O)Nc1ccccc1)C3 [Compound 96, 3-Amino-4-thiophen-2-yl-5,7-dihydro-1-thia-6,8-diaza-s-indacene-2,6-dicarboxylicacid 2-amide 6-phenylamide] as the molecule, how does the EC50 (HBV [1]) read?
Its EC50 is over 10 µM.

For CCNC(=O)N1Cc2nc3sc(C(N)=O)c(N)c3c(-c3cccs3)c2C1 [Compound 98, 3-Amino-4-thiophen-2-yl-5,7-dihydro-1-thia-6,8-diaza-s-indacene-2,6-dicarboxylicacid 2-amide 6-ethylamide], which EC50 (HBV [1]) is on record?
Its EC50 is under 1 µM.

Which EC50 (HBV [1]) does the source give for NC(=O)c1sc2nc3c(c(-c4cccs4)c2c1N)CN(C(=S)Nc1ccsc1)C3 [Compound 100, 3-Amino-4-thiophen-2-yl-5,7-dihydro-1-thia-6,8-diaza-s-indacene-2,6-dicarboxylicacid 2-amide 5-thiophen-3-ylamide] here?
Its EC50 is under 1 µM.

With NC(=O)c1sc2nc3c(c(-c4cccs4)c2c1N)CN(C(=O)Nc1ccc(N2CCOCC2)nc1)C3 [Compound 102, 3-Amino-4-thiophen-2-yl-5,7-dihydro-1-thia-6,8-diaza-s-indacene-2,6-dicarboxylicacid 2-amide 6-[(6-morpholin-4-yl-pyridin-3-yl)-amide]] as the molecule, how does the EC50 (HBV [1]) read?
Its EC50 is over 10 µM.

With NC(=O)c1sc2nc3c(c(-c4cccs4)c2c1N)CN(C(=O)CCl)C3 [Compound 104, 3-Amino-6-(2-chloro-acetyl)-4-thiophen-2-yl-6,7-dihydro-5H-1-thia-6,8-diaza-s-indacene-2-carboxylic acid amide] as the molecule, how does the EC50 (HBV [1]) read?
The EC50 was 1 to 10 µM.

Which EC50 (HBV [1]) does the source give for NC(=O)c1sc2nc3c(c(-c4cccs4)c2c1N)CN(C(=O)c1ccc(N2CCOCC2)nc1)C3 [Compound 105, 3-Amino-6-(6-morpholin-4-yl-pyridine-3-carbonyl)-4-thiophen-2-yl-6,7-dihydro-5H-1-thia-6,8-diaza-s-indacene-2-carboxylicacid amide] here?
The EC50 was over 10 µM.

Which EC50 (HBV [1]) does the source give for NC(=O)c1sc2nc3c(c(-c4cccs4)c2c1N)CCC1CCCCC31 (stereo not drawn) [Compound 107, 8-Amino-7-thiophen-2-yl-1,2,3,4,4a,5,6,11b-octahydro-10-thia-11-aza-cyclopenta[b]phenanthrene-9-carboxylic acid amide] here?
Its EC50 is over 10 µM.

Which “sustained viral response rate” value (HBV [2]) does the source give for CC(C)(C)C(=O)OCOP(=O)(COCCn1cnc2c(N)ncnc21)OCOC(=O)C(C)(C)C [adefovir dipivoxil, 9-(2-((-bis((pivaloyloxy)methoxy)phosphinyl)methoxy)ethyl)adenine] here?
The value was “below 20%”.

— US20090029983A1, “NOVEL HETEROCYCLIC COMPOUNDS HAVING ANTI-HBV ACTIVITY” (priority 2005, published 2009)
